Tests used:
[1] = test system: Escherichia coli isolate A; assay: Same-sample filtration AST, replicate treated and concurrent reference conditions (Example 3), isolate A; type: cell-based; conditions: 1 μg/mL ETP, 60 minutes 37° C.
Method: (§1) Isolate A was susceptible to ertapenem, while isolate B was resistant. The inoculum was small enough that no detectable difference in the sample's optical density at 600 mm (OD600) was detectable before and after inoculation by an Ultrospec 10 spectrophotometer with an analytical sensitivity of 0.01 absorbance units. After an incubation at 37° C., the media became turbid with an OD600 of 0.5 absorbance units after about 2 hours of incubation.
(§2) To begin the AST protocol, 23.75 μL of the above 8 bacteria batch culture dilutions was twice added to and mixed with 1.25 μL of water containing either 20 μg/mL or 0 μg/mL of dissolved ertapenem (ETP) antibiotic. As a result, […] at 1 μg/mL were created, and 8 untreated reference conditions were created (see Table 2 below). The […] were incubated at 37° C. for 60 minutes.
(§3) After 60 minutes of incubation, the entire volume of each antibiotic exposure was transferred to an individual cellulose acetate filter unit with a 0.2 μm pore size. […]
(§4) 50 μL of fresh MHB media was spun through the filters after the first centrifugation (above) to wash away residual extracellular nucleic acids present in the fluid wetting the filters. […] In this experiment, the wash fluid was collected and analyzed to learn more about the protocol, but this washing step is not necessary for determining susceptibility of the isolate. […]

[2] = test system: Escherichia coli isolate B; assay: Same-sample filtration AST, replicate treated and concurrent reference conditions (Example 3), isolate B; type: cell-based; conditions: 1 μg/mL ETP, 60 minutes 37° C.
Method: as §1, §2, §3, §4

## C[C@@H](O)[C@H]1C(=O)N2C(C(=O)O)=C(S[C@@H]3CN[C@H](C(=O)Nc4cccc(C(=O)O)c4)C3)[C@H](C)[C@H]12 [ETP, ertapenem]
[1]; alternative analysis
  susceptibility call (threshold: reference mean + 2 SD of fraction extracellular): susceptible
[1]; ddPCR 23S rRNA
  susceptibility call (t-test treated vs untreated percent extracellular): susceptible
[2]; alternative analysis
  susceptibility call (threshold: reference mean + 2 SD of fraction extracellular): resistant
[2]; ddPCR 23S rRNA
  susceptibility call (t-test treated vs untreated percent extracellular): resistant

— patent US20220282304A1, “SAME-SAMPLE ANTIBIOTIC SUSCEPTIBILITY TEST AND RELATED COMPOSITIONS, METHODS AND SYSTEMS” (CALIFORNIA INSTITUTE OF TECHNOLOGY, priority 2021, published 2022)
